In paper PMC10304225, “In Vitro Cytotoxicity and In Vivo Antitumor Activity of Lipid Nanocapsules Loaded with Novel Pyridine Derivatives” (Pharmaceutics, 2023):
In brackets after ≈: the same amount, converted by molar mass.

Columns and labels:
[1] = test system: A549 cells; test: In vitro cytotoxicity, MTT assay; type: cell-based, human; settings: 48 h, read-out: IC50 against A549
Experimental: (§1) A human lung cancer (A549) cell line, human breast adenocarcinoma (MCF-7), and normal MCF-10A human […] were obtained from VASCERA Co. (Vaccines Sera and Drugs; Cairo, Egypt). […] were cultured in Dulbecco’s modified Eagle’s medium (DMEM, Biowest, Nuaillé, France) supplemented with 10% fetal bovine serum, 100 U/mL penicillin/100 μg/mL streptomycin, and incubated under standard conditions (37 °C, 5% CO2).
(§2) The in vitro cytotoxicities of various pyridine derivatives loaded into LPNCs against A549 cells and MCF-7 cells were evaluated by the MTT assay. Briefly, 100 μL cell suspension equivalent to 1 × 10^4 cells/well was planted in a 96-well plate and incubated at 37 °C. At 24 h post-incubation, the cells were treated with 100 μL of serial dilutions of either free pyridine derivatives (S1–S4) or pyridine derivatives (S1–S4)-loaded LPNCs in a concentration range of 0.1 to 100 μM. The cells were further incubated at 37 °C for 48 h. The spent culture medium was then decanted, the cells were rinsed, 50 μL of MTT reagent (0.5 mg/mL) was added to each well, and the cells were incubated for 4 h at 37 °C. Finally, to dissolve the formazan crystals, DMSO solution (150 μL) was added to each well. The absorbance of each well was measured at 570 nm using a microplate reader (TEKAN Japan, Kawasaki, Japan). The percent cell viability was plotted against the tested compound concentration to determine the IC50 values.

[2] = test system: MCF-7 cells; test: In vitro cytotoxicity, MTT assay; type: cell-based, human; settings: 48 h, read-out: IC50 against MCF-7
Experimental: as §1, §2

[3] = Solubility measurement in various solvents (excess compound, 72 h shaking); type: physicochemical; settings: for solubility in PB (pH 7.4): phosphate buffer pH 7.4
Experimental: The solubility of 2-amino-4-aryl-6-substituted pyridine-3,5-dicarbonitrile derivatives (S1–S4) in various solvents (methanol, ethanol, phosphate buffer, and water) was determined by adding an excess amount of each compound to 10 mL of each solvent in a sealed conical flask. The slurry was then agitated at 100 rpm in a temperature-controlled incubator shaker for 72 h to reach equilibrium. The undissolved particles were allowed to settle by keeping the saturated solution without agitation for another 2 h. The solution was then centrifuged at 10,000 rpm for 10 min. One mL samples of the clear supernatant was withdrawn, diluted with the suitable solvent, and finally analyzed spectrophotometrically at pre-determined wavelengths (Table S1).

[4] = test system: Ehrlich ascites carcinoma (EAC) solid tumor; test: Histopathological examination of solid tumors (H&E); type: in vivo, mice; settings: 10 mg/kg
Experimental: On the last day of the experiment, solid tumors were dissected from all mice and were fixed […] in formalin-alcohol for 48 h, dehydrated in an alcohol series, cleared in xylene, and embedded in paraffin. Sections (4–5 μm in thickness) were stained with hematoxylin and eosin (H&E). Slides were then imaged using a Universal Infinity System optical microscope (Olympus®, Tokyo, Japan) equipped with a computer-controlled digital camera. A histopathological analysis of the tumor sections was focused on finding a typical mitotic picture, neoplastic giant cells, and the extension of the necrotic area. Histopathological examinations were evaluated in a blinded way by a pathologist.

[5] = test system: Ehrlich ascites carcinoma (EAC) solid tumor; test: In vivo antitumor activity in EAC solid tumor-bearing mice; settings: 10 mg/kg i.p. every other day for 21 days
Experimental: Ehrlich ascites carcinoma (EAC) cells (1 × 10^6 cells) obtained from the National Cancer Institute (Cairo, Egypt) were injected intraperitoneally into the peritoneal cavity of Swiss Albino mice. On day 7 post tumor cell inoculation, ascites fluid was collected. EAC was diluted with saline to obtain a cell density of 25 × 10^6 cells/mL. Then, 200 μL of the cells were injected subcutaneously in the mice’s right flanks. Tumor growth was monitored post-inoculation, and the size of the tumor was measured with a Vernier caliper. Treatment protocols were initiated on day 8 post tumor inoculation, when the tumor was palpable. […]
The dose and route of administration of the test compound and the treatment regimen were established based on previously published reports. The antitumor efficacy of different treatment protocols was evaluated in terms of tumor size, percentage tumor growth inhibition (% TGI), median survival time (MST), and percentage increase in life span (% ILS) using the following equations [31, 32]:Tumor size (mm^3) = ½ (Length × Width^2) % TGI=1−Mean tumor volume of treated group/Mean tumor volume in control group×100 MST = (day of first death + day of last death)/2 %ILS=MSTtreated group/MSTcontrol group−1×100
In addition, body weight was assessed concurrently to determine any remarkable systemic toxicity.

[6] = Biochemical analysis of liver and kidney functions in serum; type: in vivo; settings: EAC-bearing mice, 10 mg/kg i.p., last day of experiment
Experimental: On the last day of the experiment, 4 out 8 mice were euthanized, and blood samples were collected by cardiac puncture in dry Eppendorf tubes. Blood samples were set aside for 30 min at room temperature and the tubes were then centrifuged for 15 min at 2000× g to obtain serum. To assess possible hepatic damage, aspartate transaminase (AST) and alanine transaminase (ALT) activities in serum samples were assayed by using a commercial kit (Biodiagnostic, Cairo, Egypt) according to the method of Reitman and Frankel. In addition, serum creatinine level was quantified as an indicator for possible renal damage. The level of serum creatinine was analyzed by using a commercial kit that was purchased from Biodiagnostic (Cairo, Egypt) according to manufacturer instructions.

[7] = test system: Swiss Albino mice; test: Acute toxicity study, single i.p. dose; type: in vivo
Experimental: Acute toxicity studies are carried out in order to evaluate the short-term negative effects of a test compound when administered in a single dose during a period of 24 h. Briefly, the maximum tolerated dose (100 mg/kg) of the test compound (S4), dissolved in 3% dimethyl sulfoxide, was injected intraperitoneally in a group of mice (n = 5). A control group (n = 5) was i.p. injected with an equivalent volume of 3% dimethyl sulfoxide. The mice were then observed for general behavior for 1 h post-treatment and then intermittently for 4 h and finally at 24 h. The mice were then monitored for up to 14 days after treatment for symptoms of toxicity or mortalities.

[8] = test system: Swiss Albino mice; test: Median lethal dose (LD50), single i.p. injection; type: in vivo; settings: for Number of animal dead: n=5, 24 h
Experimental: The median lethal dose (LD50) test was performed to determine the dose of a test substance that elicits 50% death in mice. Briefly, a total of 30 mice were categorized into 6 groups (n = 5). Each group was dosed with a single intraperitoneal injection of the test compound (S4) dissolved in 3% dimethyl sulfoxide. The screened doses ranged from 100 to 180 mg/kg. The animals were then monitored for 2 h and then at 4, 6, and 24 h for signs of toxicity. At the end of 24 h, the total number of deaths was recorded. The LD50 was then calculated using the following equation [27]: LD50=LD100−{Σ[Dose difference×Mean dead]}/Number of animals per group where LD100 is the lowest dose capable of killing 100% of animals.

SMILES	IC50 [1]	IC50 [2]	solubility in ethanol [3]	solubility in methanol [3]	solubility in water [3]	tumor section histology [4]	tumor growth inhibition rate (TGI (%)) [5]	ALT [6]	AST [6]	Creatinine [6]	solubility in PB (pH 7.4) [3]	maximum tolerated dose ([7]; mice, i.p.)	acute toxicity observations ([7]; up to 100 mg/kg i.p., monitored up to 14 days)	lethality and signs of toxicity ([8]; 100 mg/kg i.p.)	Number of animal dead ([8]; 100 mg/kg i.p.)	lethality ([8]; 120 mg/kg and higher, i.p.)	Number of animal dead ([8]; 120 mg/kg i.p.)	Number of animal dead ([8]; 140 mg/kg i.p.)	Number of animal dead ([8]; 160 mg/kg i.p.)	Number of animal dead ([8]; 180 mg/kg i.p.)
CCNc1nc(N)c(C#N)c(-c2ccccc2)c1C#N [Compound S1]	> 100 µM	> 100 µM	5.98 ± 0.230 mg/mL (≈ 22.7 mM)	21.76 ± 0.260 mg/mL (≈ 82.6 mM)	0.57 ± 0.021 mg/mL (≈ 2.16 mM)															
O=c1[nH]cc(F)c(=O)[nH]1 [Compound 5-FU, 5-fluorouracil, reference compound]						loss of cellular architecture and tumor tissue compactness	86.81%	51.87 ± 1.29 IU/L	74.23 ± 3.84 IU/L	1.05 ± 0.15 mg/dL										
N#Cc1c(N)nc(N)c(C#N)c1-c1ccccc1 [Compound S3]	> 100 µM	> 100 µM	18.86 ± 0.225 mg/mL (≈ 80.2 mM)	35.36 ± 0.203 mg/mL (≈ 150 mM)	0.99 ± 0.007 mg/mL (≈ 4.21 mM)						0.59 ± 0.010 mg/ml									
Cc1ccc(Nc2nc(N)c(C#N)c(-c3ccccc3)c2C#N)cc1 [Compound S2]	> 100 µM	> 100 µM	13.82 ± 0.326 mg/mL (≈ 42.5 mM)	25.71 ± 0.323 mg/mL (≈ 79 mM)	1.25 ± 0.006 mg/mL (≈ 3.84 mM)						1.63 ± 0.005 mg/ml									
N#Cc1c(N)nc(Nc2ccccc2)c(C#N)c1-c1ccccc1 [Compound S4]	> 100 µM	> 100 µM	18.56 ± 0.337 mg/mL (≈ 59.6 mM)	16.57 ± 0.315 mg/mL (≈ 53.2 mM)	0.58 ± 0.002 mg/mL (≈ 1.86 mM)	loss of cellular architecture and tumor tissue compactness	73.42%	20.50 ± 1.28 IU/L	36.66 ± 1.87 IU/L	0.54 ± 0.02 mg/dL	0.59 ± 0.001 mg/ml	100 mg/kg	no behavioral abnormalities, toxicity symptoms, or mortalities were detected	not lethal but only induced drowsiness	0	lethal to animals	5	5	5	5
